From ChEMBL document CHEMBL4808172, “Structure-Activity Relationship of Heterocyclic P2Y14 Receptor Antagonists: Removal of the Zwitterionic Character with Piperidine Bioisosteres” (J Med Chem, 2021)
Calls of active or inactive are those of the source. The rule behind the calls is not given here.

Assays:
liver carboxylesterase [1] = biological target: T1, liver carboxylesterase (Sus scrofa, UniProt Q29550); experiment: Drug metabolism in pH 7.5 HEPES buffer assessed as porcine liver esterase-mediated compound hydrolysis measured up to 72 hrs by HPLC analysis; assay type: ADME; conditions: pig, read-out: Drug degradation
T1 sequence (Q29550 whole entry): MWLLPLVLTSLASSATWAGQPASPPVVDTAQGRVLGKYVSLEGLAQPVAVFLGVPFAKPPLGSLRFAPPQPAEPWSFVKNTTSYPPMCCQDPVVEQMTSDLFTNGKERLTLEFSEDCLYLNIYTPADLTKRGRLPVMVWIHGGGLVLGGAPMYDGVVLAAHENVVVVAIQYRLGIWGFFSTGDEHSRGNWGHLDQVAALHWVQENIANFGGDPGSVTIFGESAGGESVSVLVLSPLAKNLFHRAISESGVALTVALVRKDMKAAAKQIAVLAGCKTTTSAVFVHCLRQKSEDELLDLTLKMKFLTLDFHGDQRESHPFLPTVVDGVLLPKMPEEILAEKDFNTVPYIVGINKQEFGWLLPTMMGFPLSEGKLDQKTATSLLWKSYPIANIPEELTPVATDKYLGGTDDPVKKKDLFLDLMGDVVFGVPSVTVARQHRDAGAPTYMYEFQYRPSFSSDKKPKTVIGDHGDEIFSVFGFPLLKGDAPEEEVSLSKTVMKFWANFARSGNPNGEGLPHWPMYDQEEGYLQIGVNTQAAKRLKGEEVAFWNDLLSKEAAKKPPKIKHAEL

liver carboxylesterase [2] = biological target: T1, liver carboxylesterase; experiment: Drug metabolism in pH 7.5 HEPES buffer assessed as porcine liver esterase-mediated compound hydrolysis by measuring half life measured up to 72 hrs by HPLC analysis; assay type: ADME, tissue-based; conditions: pig
[3] = Stability of compound in aqueous medium after 24 hrs in absence of PLE by HPLC analysis; assay type: physicochemical; conditions: buffer
Mus musculus = experiment: Antiinflammatory activity in mouse model of ovalbumin/Aspergillus-induced allergic asthma assessed as reduction in eosinophil counts in BALF at 20 umol/kg, ip administered 30 mins prior to allergen challenge and measured after 2 days post challenge; assay type: functional, organism-based; conditions: dose 20.0 µmol/kg, time 2.0 day
[4] = biological target: T2, Sigma intracellular receptor 2 (Homo sapiens, UniProt Q5BJF2); experiment: Binding affinity to sigma 2 receptor (unknown origin)
T2 sequence (Q5BJF2 whole entry): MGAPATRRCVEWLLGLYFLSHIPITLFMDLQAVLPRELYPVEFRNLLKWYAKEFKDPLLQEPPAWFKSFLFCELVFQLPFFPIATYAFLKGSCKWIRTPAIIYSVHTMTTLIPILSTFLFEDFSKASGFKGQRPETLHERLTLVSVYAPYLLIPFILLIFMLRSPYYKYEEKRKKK

liver carboxylesterase [5] = biological target: T1, liver carboxylesterase; experiment: Drug metabolism in pH 7.5 HEPES buffer assessed as porcine liver esterase-mediated compound hydrolysis by measuring half life measured up to 120 mins by HPLC analysis; assay type: ADME, tissue-based; conditions: pig
[6] = biological target: Delta-type opioid receptor (Homo sapiens, UniProt P41143); experiment: Binding affinity to DOR (unknown origin)
Delta-type opioid receptor, sequence (P41143 whole entry): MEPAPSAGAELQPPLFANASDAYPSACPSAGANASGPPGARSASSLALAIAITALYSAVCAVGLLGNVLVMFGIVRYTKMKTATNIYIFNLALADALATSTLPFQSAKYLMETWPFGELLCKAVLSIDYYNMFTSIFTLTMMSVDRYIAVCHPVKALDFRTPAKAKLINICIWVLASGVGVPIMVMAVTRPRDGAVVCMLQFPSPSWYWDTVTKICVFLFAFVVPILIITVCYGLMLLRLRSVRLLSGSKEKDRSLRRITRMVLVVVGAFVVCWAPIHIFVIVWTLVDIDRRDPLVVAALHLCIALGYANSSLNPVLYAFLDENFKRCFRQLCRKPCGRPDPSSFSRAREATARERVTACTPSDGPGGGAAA

P2Y purinoceptor 14 = biological target: T3, P2Y purinoceptor 14 (Homo sapiens, UniProt Q15391); experiment: cell-based
T3 sequence (Q15391 whole entry): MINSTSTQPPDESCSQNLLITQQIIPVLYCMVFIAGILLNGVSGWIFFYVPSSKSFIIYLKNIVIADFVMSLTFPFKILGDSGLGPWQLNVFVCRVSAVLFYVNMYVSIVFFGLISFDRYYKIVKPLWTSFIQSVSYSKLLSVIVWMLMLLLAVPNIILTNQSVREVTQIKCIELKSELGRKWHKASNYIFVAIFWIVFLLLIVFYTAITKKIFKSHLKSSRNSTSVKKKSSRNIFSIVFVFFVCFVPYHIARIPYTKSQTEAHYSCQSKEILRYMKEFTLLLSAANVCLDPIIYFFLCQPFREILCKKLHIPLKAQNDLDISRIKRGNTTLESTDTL

[7] = biological target: T4, Alpha-2B adrenergic receptor (Homo sapiens) (UniProt P18089); experiment: Inhibition of alpha2b (unknown origin) at 10 uM relative to control
T4 sequence (whole entry): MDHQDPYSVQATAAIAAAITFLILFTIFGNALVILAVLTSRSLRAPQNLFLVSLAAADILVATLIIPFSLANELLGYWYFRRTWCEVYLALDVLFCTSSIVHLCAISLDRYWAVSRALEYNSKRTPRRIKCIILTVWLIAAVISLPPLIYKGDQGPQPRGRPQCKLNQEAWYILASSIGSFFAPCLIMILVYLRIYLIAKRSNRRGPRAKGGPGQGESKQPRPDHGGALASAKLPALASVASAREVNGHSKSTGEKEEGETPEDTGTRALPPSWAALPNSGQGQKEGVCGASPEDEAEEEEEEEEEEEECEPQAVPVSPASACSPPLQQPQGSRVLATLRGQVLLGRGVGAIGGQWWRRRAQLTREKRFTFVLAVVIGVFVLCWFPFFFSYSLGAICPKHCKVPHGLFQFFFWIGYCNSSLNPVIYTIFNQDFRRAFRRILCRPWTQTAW

[8] = biological target: Sigma non-opioid intracellular receptor 1 (Homo sapiens, UniProt Q99720); experiment: Binding affinity to sigma 1 receptor (unknown origin)
Sigma non-opioid intracellular receptor 1, sequence (Q99720 whole entry): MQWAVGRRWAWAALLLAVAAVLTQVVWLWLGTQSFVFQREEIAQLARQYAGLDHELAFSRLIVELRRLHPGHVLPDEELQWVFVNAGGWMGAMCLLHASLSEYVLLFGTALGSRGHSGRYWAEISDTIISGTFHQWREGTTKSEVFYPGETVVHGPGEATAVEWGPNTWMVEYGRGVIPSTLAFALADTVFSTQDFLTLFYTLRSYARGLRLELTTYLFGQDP

D(1A) dopamine receptor = D(1A) dopamine receptor (Homo sapiens, UniProt P21728); experiment: Binding affinity to D1 receptor (unknown origin)
D(1A) dopamine receptor, sequence (P21728 whole entry): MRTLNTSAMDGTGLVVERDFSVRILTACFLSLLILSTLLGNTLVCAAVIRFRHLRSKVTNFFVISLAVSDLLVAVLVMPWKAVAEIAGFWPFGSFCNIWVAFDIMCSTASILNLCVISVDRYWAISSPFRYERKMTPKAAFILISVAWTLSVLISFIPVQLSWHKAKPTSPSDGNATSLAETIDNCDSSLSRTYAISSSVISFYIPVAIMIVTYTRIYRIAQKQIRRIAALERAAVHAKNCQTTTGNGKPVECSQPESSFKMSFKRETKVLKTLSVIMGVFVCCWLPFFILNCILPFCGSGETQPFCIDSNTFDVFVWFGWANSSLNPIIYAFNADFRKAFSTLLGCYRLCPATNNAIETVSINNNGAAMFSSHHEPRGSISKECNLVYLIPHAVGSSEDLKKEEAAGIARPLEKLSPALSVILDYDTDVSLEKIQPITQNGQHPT

[9] = biological target: T5, Alpha-2A adrenergic receptor (Homo sapiens, UniProt P08913); experiment: Binding affinity to alpha2a (unknown origin)
T5 sequence (P08913 whole entry): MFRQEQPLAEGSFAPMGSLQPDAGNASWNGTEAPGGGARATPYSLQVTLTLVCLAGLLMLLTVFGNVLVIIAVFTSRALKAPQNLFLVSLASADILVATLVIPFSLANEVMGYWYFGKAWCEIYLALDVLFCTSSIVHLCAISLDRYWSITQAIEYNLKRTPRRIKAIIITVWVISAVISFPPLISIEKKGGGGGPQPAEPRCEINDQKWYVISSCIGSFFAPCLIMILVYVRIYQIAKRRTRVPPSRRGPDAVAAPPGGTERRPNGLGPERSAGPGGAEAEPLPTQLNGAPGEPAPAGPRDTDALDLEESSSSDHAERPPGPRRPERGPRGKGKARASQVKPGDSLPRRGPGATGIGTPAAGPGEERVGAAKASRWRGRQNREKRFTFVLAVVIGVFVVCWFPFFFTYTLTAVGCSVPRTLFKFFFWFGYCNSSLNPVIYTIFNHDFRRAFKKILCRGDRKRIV

[10] = biological target: 5-hydroxytryptamine receptor 1D (Homo sapiens) (UniProt P28221); experiment: Inhibition of 5HT1D (unknown origin) at 10 uM relative to control
5-hydroxytryptamine receptor 1D (Homo sapiens), sequence (P28221 whole entry): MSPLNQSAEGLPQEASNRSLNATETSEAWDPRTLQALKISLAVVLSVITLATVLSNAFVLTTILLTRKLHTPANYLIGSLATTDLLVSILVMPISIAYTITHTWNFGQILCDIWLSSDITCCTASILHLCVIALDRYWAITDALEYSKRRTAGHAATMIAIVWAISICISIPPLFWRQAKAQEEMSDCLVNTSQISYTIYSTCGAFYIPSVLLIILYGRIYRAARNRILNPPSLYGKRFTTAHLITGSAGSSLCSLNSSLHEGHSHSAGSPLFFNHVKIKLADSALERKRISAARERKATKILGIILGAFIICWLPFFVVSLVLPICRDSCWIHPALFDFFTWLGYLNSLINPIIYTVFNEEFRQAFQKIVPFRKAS

Histamine H4 receptor = Histamine H4 receptor (Homo sapiens, UniProt Q9H3N8); experiment: Binding affinity to H4 receptor (unknown origin)
Histamine H4 receptor, sequence (Q9H3N8 whole entry): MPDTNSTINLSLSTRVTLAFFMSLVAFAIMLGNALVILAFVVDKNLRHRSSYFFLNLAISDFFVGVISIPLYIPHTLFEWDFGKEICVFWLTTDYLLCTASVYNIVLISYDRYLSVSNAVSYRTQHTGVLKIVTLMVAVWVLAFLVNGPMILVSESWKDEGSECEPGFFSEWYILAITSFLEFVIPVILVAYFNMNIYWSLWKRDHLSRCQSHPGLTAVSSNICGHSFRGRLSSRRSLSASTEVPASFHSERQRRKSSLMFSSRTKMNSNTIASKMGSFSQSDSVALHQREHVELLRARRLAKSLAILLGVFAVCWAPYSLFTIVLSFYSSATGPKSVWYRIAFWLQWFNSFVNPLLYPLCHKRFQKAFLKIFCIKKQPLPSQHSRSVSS

[11] = biological target: T2, Sigma intracellular receptor 2; experiment: Inhibition of sigma 2 receptor (unknown origin) at 10 uM relative to control
D(1B) dopamine receptor = D(1B) dopamine receptor (Homo sapiens, UniProt P21918); experiment: Binding affinity to D5 receptor (unknown origin)
D(1B) dopamine receptor, sequence (P21918 whole entry): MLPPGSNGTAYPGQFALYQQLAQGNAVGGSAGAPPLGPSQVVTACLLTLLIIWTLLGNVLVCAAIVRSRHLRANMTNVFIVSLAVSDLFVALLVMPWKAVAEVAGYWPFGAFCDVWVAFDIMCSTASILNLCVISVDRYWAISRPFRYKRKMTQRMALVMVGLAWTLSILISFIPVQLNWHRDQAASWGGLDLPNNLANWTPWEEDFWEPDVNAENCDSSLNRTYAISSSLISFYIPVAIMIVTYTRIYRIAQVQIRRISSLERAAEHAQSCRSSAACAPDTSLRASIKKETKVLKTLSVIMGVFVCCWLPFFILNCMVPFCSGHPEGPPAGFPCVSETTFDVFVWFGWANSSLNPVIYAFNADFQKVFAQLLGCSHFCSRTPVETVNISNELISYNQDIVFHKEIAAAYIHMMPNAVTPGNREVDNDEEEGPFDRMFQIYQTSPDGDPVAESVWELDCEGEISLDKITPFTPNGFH

[12] = biological target: T6, Alpha-1B adrenergic receptor (Homo sapiens, UniProt P35368); experiment: Binding affinity to alpha1b (unknown origin)
T6 sequence (P35368 whole entry): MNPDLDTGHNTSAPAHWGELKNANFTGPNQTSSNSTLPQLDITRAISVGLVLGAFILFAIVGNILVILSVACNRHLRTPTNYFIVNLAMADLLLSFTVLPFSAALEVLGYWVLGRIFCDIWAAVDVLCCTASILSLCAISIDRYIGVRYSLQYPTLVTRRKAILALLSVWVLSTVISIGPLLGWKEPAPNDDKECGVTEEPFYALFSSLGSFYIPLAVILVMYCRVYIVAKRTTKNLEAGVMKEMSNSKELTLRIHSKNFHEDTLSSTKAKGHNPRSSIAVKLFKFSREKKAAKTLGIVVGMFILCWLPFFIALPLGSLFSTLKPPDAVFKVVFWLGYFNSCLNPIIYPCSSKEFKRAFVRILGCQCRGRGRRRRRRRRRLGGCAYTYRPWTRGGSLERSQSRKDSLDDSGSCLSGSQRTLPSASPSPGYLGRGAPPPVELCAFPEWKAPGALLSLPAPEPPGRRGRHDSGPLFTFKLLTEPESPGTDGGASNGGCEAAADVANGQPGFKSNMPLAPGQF

Q: What does the source list for CC(=O)N1CCC(c2ccc(-c3cc(C(=O)OCC(=O)N(C)C)cc4cc(-c5ccc(C(F)(F)F)cc5)ccc34)cc2)CC1?
A: metabolised at 72 h (liver carboxylesterase [1]): 27.2%; half-life (liver carboxylesterase [2]): > 72 h; Stabilty [3]: Stable; Activity (Mus musculus): Active; Ki [4]: 590 nM

Q: Which half-life (liver carboxylesterase [5]) does the source give for CN(C)C(=O)COC(=O)c1cc(-c2ccc(C3CCNCC3)cc2)cc(-n2cc(-c3ccc(C(F)(F)F)cc3)nn2)c1 here?
A: The half-life was 0.337 h.

Q: And the Stabilty [3]?
A: Its Stabilty is “Stable”.

Q: For CN(C)C(=O)COC(=O)c1cc(-c2ccc(-c3cc(CO)on3)cc2)c2ccc(-c3ccc(C(F)(F)F)cc3)cc2c1, which metabolised at 72 h (liver carboxylesterase [1]) is on record?
A: The metabolised at 72 h was 32.6%.

Q: What about the half-life (liver carboxylesterase [2]) of the same compound?
A: Its half-life is > 72 h.

Q: And the Stabilty [3]?
A: The Stabilty was “Stable”.

Q: What about the Activity (Mus musculus) of the same compound?
A: The Activity was “Active”.

Q: For O=C(O)c1cc(-c2ccc(-c3nnn[nH]3)cc2)cc(-n2cc(-c3ccc(C(F)(F)F)cc3)nn2)c1, which Ki [6] is on record?
A: The Ki was 3300 nM.

Q: What about the Ki [4] of the same compound?
A: Its Ki is 2260 nM.

Q: Which IC50 (P2Y purinoceptor 14) does the source give for O=C(O)c1cc(-c2ccc(Br)cc2)cc(-n2cc(-c3ccc(C(F)(F)F)cc3)nn2)c1 here?
A: The IC50 was > 10000 nM.

Q: With O=CN1CCC(c2ccc(-c3cc(C(=O)O)cc4cc(-c5ccc(C(F)(F)F)cc5)ccc34)cc2)CC1 as the compound, how does the inhibition [7] read?
A: The inhibition was 82%.

Q: And the Ki [8]?
A: The Ki was 759 nM.

Q: And the Ki (D(1A) dopamine receptor)?
A: The Ki was 520 nM.

Q: And the Ki [9]?
A: The Ki was 3970 nM.

Q: What about the inhibition [10] of the same compound?
A: Its inhibition is 81%.

Q: What about the Ki (Histamine H4 receptor) of the same compound?
A: Its Ki is 1700 nM.

Q: What about the inhibition [11] of the same compound?
A: The inhibition was 84%.

Q: And the Ki (D(1B) dopamine receptor)?
A: Its Ki is 1440 nM.

Q: What about the Ki [12] of the same compound?
A: The Ki was 2650 nM.
